Measurements taken from US20240174744A1, “METHODS OF TREATMENT USING PROTEIN BINDERS TO IRHOM2 EPITOPES” (SCIRHOM GMBH, priority 2021, published 2024).

System: PMA-induced release of IL-6R from U-937 cells
Assay: ELISA-based IL-6R release assay, PMA-stimulated U-937 cells
Format: cell-based
Conditions: Homo sapiens, U-937, 1 h, Batimastat 10 μM, PMA 62.5 ng/ml
Method: Complementary to Example 26 described above, ELISA-based IL-6R release assays were performed to verify the inhibitory effects of the antibodies of the present disclosure on PMA-induced release of endogenous IL-6R from human U-937 cells.
In brief, on day 1, Nunc black MaxiSorp® 96-well plates (Thermo Fisher Scientific, USA) were coated overnight with 100 μl per well of mouse anti-human IL-6R capture antibody (provided as part of the DuoSet ELISA kit) at 2 μg/ml TBS at 4° C. On day 2, the capture antibody solution was removed and MaxiSorp® plates were blocked with 300 μl per well of TBS, 1% BSA at room temperature for 1-2 hours. […] Using an infinite M1000 (Tecan Group, Switzerland) microplate reader, the fluorescence of each well was collected at an excitation wavelength of 435 nm and an emission wavelength of 555 nm. […]

Compound `CNC(=O)[C@H](Cc1ccccc1)NC(=O)[C@H](CC(C)C)[C@H](CSc1cccs1)C(=O)NO` [Batimastat] has an inhibition at 10 µM (murine (m) and chimeric (ch) antibodies 3 μg/ml) of 91.6% and an inhibition at 10 µM (recombinant murine antibodies 1 μg/ml) of 86.6%.
